According to publication PMC11872507, “Lasso peptides sviceucin and siamycin I exhibit anti-virulence activity and restore vancomycin effectiveness in vancomycin-resistant pathogens” (iScience, 2025):
In brackets after ≈: the same amount, converted by molar mass.

How the values were obtained:
E. faecalis V583 ΔvanB = experiment: microbe, parasite or virus in culture; format: cell-based, Enterococcus faecalis; conditions: Enterococcus faecalis, read-out: Vancomycin MIC
Protocol: (§5) The MIC of vancomycin was determined by the microdilution method described in the guidelines of the European Committee on Antimicrobial Susceptibility Testing (EUCAST 2024, v14.0 Breakpoint Tables).[58] For enterococci, GM17 medium was used instead of CAMH medium since enterococci cannot degrade starch, the main carbohydrate of MH medium. 2-fold serial dilutions of the tested antibiotic were performed to obtain concentrations ranging from 0.5 to 512 μg/mL. LP were then added to the wells at the desired concentration. The medium was inoculated with a final inoculum of 5 × 10^5 CFU/mL. The MIC is the lowest concentration that prevents visible in vitro growth.

vanYB in Svic1 = experiment: vanYB expression by RT-qPCR; format: cell-based, Enterococcus faecalis; conditions: vancomycin 1 μg/mL alone
Protocol: (§1) For gelE gene expression measurements, bacteria were cultured in GM17 medium supplemented with the 1:1 water:methanol formulation or either sviceucin at 10 μM, or siamycin I at 1 μM. Cultures were incubated at 37°C until reaching OD600 of 0.5. For vanY gene expression measurements, bacteria were cultured in GM17 medium supplemented with either vancomycin at 1 μg/mL or sviceucin at 10 μM and vancomycin at 1 μg/mL at 37°C to induce the expression of van genes until reaching OD600 of 0.5. Bacteria were recovered by centrifugation at 4200 RCF for 2 min. Once the supernatant was discarded, the pellets were stored at −80°C. Pellets were resuspended in TE buffer or ML lysis buffer, depending on kit used, and transferred in Lysis Matrix B Tubes (MP Biomedicals, USA) before cell lysis with a FastPrep-24 5G (2 × 40 s at 6 m/s, 5 min on ice in-between cycles) (MP Biomedicals, USA). After bead-beating lysis, RNA extraction was performed using Direct-Zol RNA Miniprep kit (Zymo Research, USA) for gelE gene expression measurements or NucleoSpin^Ⓡ miRNA Miniprep kit (Macherey-Nagel, Germany) for vanY gene expression measurements, according to the manufacturers’ instructions. Retrotranscription was performed using QuantiTect Reverse transcription (QIAGEN, Germany). qPCR on cDNA was performed with GoTaq qPCR (Promega, USA). […] Data were analyzed with CFX Manager software (Biorad, USA).

[1] = tested on: vanYB in E. faecalis V583; experiment: vanYB expression by RT-qPCR; format: cell-based, Enterococcus faecalis; conditions: vancomycin 1 μg/mL alone
Protocol: as §1

V583 vanSB^D398E = experiment: Vancomycin MIC, microdilution; format: cell-based; conditions: Enterococcus faecalis; vancomycin alone (control)
Protocol: as §5

V583 ΔvanSB = experiment: Vancomycin MIC, microdilution; format: cell-based; conditions: Enterococcus faecalis; vancomycin alone (control)
Protocol: The MIC of vancomycin was determined by the microdilution method described in the guidelines of the European Committee on Antimicrobial Susceptibility Testing (EUCAST 2024, v14.0 Breakpoint Tables).[58] […] 2-fold serial dilutions of the tested antibiotic were performed to obtain concentrations ranging from 0.5 to 512 μg/mL. LP were then added to the wells at the desired concentration. The medium was inoculated with a final inoculum of 5 × 10^5 CFU/mL. The MIC is the lowest concentration that prevents visible in vitro growth.

E. faecalis V583 = experiment: Quantification of D-Ala-D-Lac muropeptides by LCMS; format: cell-based, Enterococcus faecalis; conditions: vancomycin alone, 2 μg/mL; means of at least two biological replicates
Protocol: (§2) Extraction of muropeptides was performed as previously described[64] with modifications. Bacteria were cultured overnight in GM17 medium supplemented with 2 μg/mL of vancomycin (Merck, USA), 10 μM of sviceucin, or 2 μM of siamycin I. Bacteria were pelleted by centrifugation for 5 min at 10000 rpm and then resuspended in 1 mL of 0.1 M Tris-HCl (pH 6.8), 0.25% SDS. Samples were boiled for 20 min in a heating block (Biolock Scientific, USA) and then centrifuged for 5 min at 10000 rpm. The pellets were washed twice with 1 mL of cold ultrapure water before sonication for 30 min (Branson 1800 Cleaner, USA). 500 μL of DNase 15 μg/mL and RNase 60 μg/mL (Sigma-Aldrich, USA) were added to each sample then incubated at 37°C for 60 min. […] Pellets were resuspended in 12,5 mM sodium phosphate buffer (pH 5.5), then muropeptides concentration was determined and standardized to an OD578 of 3. […]
(§3) LCMS analysis was performed on an ultra-high performance LC system (Ultimate 3000 RSLC, Thermo Scientific, USA) coupled to a high-resolution electrospray ionization-quadrupole-time of flight mass spectrometer (MaXis II ETD, Bruker Daltonics, USA). […] Mass data were analyzed by Data Analysis 4.4 (Bruker Daltonics, USA). For quantification, the m/z corresponding to singly- and doubly-charged species of monomer, as well as doubly- and triply-charged species of dimers of muropeptides were manually searched. […]

Svic1 = experiment: Quantification of D-Ala-D-Lac muropeptides by LCMS; format: cell-based, Enterococcus faecalis; conditions: vancomycin alone, 2 μg/mL; means of at least two biological replicates
Protocol: as §2, §3

E. faecium 1 231 502 = experiment: microbe, parasite or virus in culture; format: cell-based, Enterococcus faecium; conditions: Enterococcus faecium, 1231502, read-out: Vancomycin MIC
Protocol: as §5

[2] = tested on: V583 ΔvanSB-vanRB::vanS-vanR; experiment: Vancomycin MIC, microdilution; format: cell-based; conditions: Enterococcus faecalis; vancomycin alone (control); VanA-type transduction system, VanB-type resistance genes
Protocol: (§4) To further support this, we investigated the origin of the different activity spectra of sviceucin and siamycin I between VanA- and VanB-type vancomycin resistance. We first replaced vanSB by vanS in the VanB-type strain E. faecalis V583. VanS-VanRB strain was sensitive to vancomycin (MIC = 2 μg/mL), probably because of an impaired signal transduction between VanS and VanRB. To bypass this issue, we replaced the vanRBSB-PvanYB fragment by the vanRS-PvanH fragment from a VanA-type operon, resulting in a VanA-type transduction system fused to VanB-type resistance genes.

VanS-VanRB strain = experiment: Vancomycin MIC, microdilution; format: cell-based; conditions: Enterococcus faecalis; vanSB replaced by vanS in V583
Protocol: as §4

V583 ΔvanB::vanA = experiment: Vancomycin MIC, microdilution; format: cell-based; conditions: Enterococcus faecalis; vancomycin alone (control)
Protocol: as §4

## CN[C@H](CC(C)C)C(=O)N[C@H]1C(=O)N[C@@H](CC(N)=O)C(=O)N[C@H]2C(=O)N[C@H]3C(=O)N[C@H](C(=O)N[C@H](C(=O)O)c4cc(O)cc(O)c4-c4cc3ccc4O)[C@H](O)c3ccc(c(Cl)c3)Oc3cc2cc(c3O[C@@H]2O[C@H](CO)[C@@H](O)[C@H](O)[C@H]2O[C@H]2C[C@](C)(N)[C@H](O)[C@H](C)O2)Oc2ccc(cc2Cl)[C@H]1O [Vancomycin]
E. faecalis V583 ΔvanB
  MIC: 2 µg/mL (≈ 1.38 µM)
vanYB in Svic1
  vanYB expression induced by vancomycin, in words: strongly induced
[1]
  vanYB expression induced by vancomycin, in words: strongly induced
V583 vanSB^D398E
  MIC: 128 µg/mL (≈ 88.3 µM)
V583 ΔvanSB
  MIC: 2 µg/mL (≈ 1.38 µM)
E. faecalis V583
  percentage of muropeptides D-Ala-D-Lac: 48.3%
Svic1
  percentage of muropeptides D-Ala-D-Lac: 62.0%
E. faecium 1 231 502
  MIC: 128 µg/mL (≈ 88.3 µM)
[2]
  MIC: 32 µg/mL (≈ 22.1 µM)
VanS-VanRB strain
  MIC: 2 µg/mL (≈ 1.38 µM)
V583 ΔvanB::vanA
  MIC: 32 µg/mL (≈ 22.1 µM)
